{"source": "ChEMBL document CHEMBL1201862", "about": "“PubChem BioAssay data set” (2004)", "key": {"Cytochrome P450 1A2": {"biological_target": "T1, Cytochrome P450 1A2 (Homo sapiens, UniProt P05177)", "T1 sequence (P05177 whole entry)": "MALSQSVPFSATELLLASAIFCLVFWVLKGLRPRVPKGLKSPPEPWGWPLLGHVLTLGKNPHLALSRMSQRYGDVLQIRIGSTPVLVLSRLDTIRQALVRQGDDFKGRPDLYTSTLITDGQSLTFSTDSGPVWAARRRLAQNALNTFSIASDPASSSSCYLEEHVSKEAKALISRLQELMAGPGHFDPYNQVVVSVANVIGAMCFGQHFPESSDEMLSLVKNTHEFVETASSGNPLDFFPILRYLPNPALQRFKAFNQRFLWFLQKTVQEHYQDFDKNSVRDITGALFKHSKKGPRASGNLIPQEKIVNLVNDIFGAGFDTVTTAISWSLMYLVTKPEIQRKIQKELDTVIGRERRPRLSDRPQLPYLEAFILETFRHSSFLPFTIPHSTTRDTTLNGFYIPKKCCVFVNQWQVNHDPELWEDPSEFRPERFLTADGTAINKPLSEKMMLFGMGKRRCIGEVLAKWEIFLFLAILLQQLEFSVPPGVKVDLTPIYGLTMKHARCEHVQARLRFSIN"}, "Estrogen receptor beta": {"biological_target": "Estrogen receptor beta (Homo sapiens, UniProt Q92731)", "sequence (Q92731 whole entry)": "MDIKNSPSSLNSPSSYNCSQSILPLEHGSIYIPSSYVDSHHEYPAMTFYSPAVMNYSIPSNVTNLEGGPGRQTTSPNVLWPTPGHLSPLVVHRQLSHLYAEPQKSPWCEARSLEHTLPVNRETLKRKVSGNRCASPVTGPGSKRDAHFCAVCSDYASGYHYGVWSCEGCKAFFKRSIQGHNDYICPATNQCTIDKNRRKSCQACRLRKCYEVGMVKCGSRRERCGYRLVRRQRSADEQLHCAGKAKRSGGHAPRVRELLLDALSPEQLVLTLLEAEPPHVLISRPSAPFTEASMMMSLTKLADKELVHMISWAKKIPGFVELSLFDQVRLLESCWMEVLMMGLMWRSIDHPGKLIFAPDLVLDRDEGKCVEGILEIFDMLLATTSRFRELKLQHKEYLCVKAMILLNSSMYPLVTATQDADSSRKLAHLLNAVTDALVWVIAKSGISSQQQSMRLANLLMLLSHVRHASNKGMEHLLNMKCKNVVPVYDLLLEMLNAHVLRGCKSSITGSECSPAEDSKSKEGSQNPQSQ"}, "[1]": {"biological_target": "Voltage-dependent T-type calcium channel subunit alpha-1H (Homo sapiens, UniProt O95180)", "sequence (O95180 whole entry)": "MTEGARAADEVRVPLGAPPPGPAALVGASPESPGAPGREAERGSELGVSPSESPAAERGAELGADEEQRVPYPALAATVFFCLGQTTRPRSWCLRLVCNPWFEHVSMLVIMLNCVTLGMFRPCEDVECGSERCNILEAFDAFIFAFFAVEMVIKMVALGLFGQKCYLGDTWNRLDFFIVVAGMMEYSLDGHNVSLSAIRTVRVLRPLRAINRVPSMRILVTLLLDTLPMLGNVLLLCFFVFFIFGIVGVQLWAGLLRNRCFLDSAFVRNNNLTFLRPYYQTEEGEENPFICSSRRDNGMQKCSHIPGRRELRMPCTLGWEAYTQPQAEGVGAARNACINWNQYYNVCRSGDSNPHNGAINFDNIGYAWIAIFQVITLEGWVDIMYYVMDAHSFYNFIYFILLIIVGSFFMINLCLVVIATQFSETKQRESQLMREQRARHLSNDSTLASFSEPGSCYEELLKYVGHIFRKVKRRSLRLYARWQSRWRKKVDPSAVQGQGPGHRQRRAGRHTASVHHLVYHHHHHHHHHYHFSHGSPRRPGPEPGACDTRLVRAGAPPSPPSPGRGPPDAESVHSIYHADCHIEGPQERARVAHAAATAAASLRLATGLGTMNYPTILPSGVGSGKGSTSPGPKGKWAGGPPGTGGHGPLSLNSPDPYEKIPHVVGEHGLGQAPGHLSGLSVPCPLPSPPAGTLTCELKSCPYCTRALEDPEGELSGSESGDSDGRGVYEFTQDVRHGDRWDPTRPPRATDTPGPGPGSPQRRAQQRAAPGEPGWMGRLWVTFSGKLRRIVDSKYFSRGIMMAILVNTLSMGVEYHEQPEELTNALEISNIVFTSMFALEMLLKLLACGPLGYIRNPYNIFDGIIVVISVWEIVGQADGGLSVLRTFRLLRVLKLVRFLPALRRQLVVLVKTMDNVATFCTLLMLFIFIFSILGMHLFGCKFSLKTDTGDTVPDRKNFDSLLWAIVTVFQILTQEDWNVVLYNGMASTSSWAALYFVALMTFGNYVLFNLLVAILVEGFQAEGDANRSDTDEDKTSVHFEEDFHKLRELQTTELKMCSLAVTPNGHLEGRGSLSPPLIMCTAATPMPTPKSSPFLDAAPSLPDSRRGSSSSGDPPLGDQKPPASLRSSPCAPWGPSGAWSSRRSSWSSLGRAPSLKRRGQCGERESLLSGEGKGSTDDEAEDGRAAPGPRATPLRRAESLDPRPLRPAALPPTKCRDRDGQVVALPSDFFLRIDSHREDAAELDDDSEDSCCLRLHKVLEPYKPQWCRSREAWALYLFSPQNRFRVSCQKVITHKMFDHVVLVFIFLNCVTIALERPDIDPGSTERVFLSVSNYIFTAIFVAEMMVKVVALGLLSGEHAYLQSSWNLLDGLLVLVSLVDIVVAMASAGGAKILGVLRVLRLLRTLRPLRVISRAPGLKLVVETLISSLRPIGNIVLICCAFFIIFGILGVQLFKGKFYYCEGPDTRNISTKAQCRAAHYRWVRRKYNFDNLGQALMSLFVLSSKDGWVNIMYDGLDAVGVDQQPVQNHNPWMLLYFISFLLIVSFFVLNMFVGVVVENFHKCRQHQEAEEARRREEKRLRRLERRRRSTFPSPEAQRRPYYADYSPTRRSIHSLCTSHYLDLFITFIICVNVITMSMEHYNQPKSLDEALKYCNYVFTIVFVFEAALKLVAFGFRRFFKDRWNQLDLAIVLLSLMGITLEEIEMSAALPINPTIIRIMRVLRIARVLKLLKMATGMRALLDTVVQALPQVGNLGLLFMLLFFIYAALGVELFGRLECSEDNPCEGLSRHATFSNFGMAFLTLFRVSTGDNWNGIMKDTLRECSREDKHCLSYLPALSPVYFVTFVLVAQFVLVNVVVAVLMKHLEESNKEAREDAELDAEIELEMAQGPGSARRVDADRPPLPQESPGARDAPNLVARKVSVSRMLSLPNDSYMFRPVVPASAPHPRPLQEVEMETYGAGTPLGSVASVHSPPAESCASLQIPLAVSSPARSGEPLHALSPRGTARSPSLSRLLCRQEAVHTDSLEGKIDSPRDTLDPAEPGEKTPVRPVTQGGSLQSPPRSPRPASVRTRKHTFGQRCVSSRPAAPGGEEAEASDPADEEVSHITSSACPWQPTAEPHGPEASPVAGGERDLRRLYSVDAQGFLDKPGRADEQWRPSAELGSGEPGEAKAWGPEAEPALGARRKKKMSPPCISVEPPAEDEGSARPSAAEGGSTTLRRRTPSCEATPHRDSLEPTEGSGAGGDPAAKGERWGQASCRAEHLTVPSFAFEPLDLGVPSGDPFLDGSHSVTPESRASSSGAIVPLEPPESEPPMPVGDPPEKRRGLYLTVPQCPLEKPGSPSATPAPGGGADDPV", "assay_type": "functional"}, "[2]": {"assay": "inhibitors of SNCA 5'UTR-driven translation, confirmation, luminescence, H4 neuroglioblastoma cells, dose confirmation (AID 2454);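 further: potency for inhibition of the luciferase signal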", "assay_type": "functional, cell-based"}, "cells [3]": {"assay": "cells", "assay_type": "functional, cell-based"}, "[4]": {"assay": "Luminescence Cell-Based Dose Response HTS to Identify Inhibitors of 5'UTR Stem-Loop Driven Prion Protein mRNA Translation in H4 Neuroglioblastoma Cells. [Related pubchem assays: 1827 (Project Summary), 1813 (Primary HTS)]", "assay_type": "functional"}, "[5]": {"assay": "inhibitors of firefly luciferase expression or activity, dose response, H4 neuroglioma cells, luminescence (AID 1990)", "assay_type": "functional, cell-based"}, "[6]": {"assay": "inhibitors of SNCA 5'UTR-driven reporter translation, confirmation, H4 neuroglioma cells, luminescence (AID 1988)", "assay_type": "functional, cell-based"}, "[7]": {"assay": "luciferase reporter signal reduction – luminescence, H4-C neuroglioblastoma cells, dose response (AID 2458);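 further: H4 neuroglioblastoma cells stably carrying a luciferase reporter gene fusion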", "assay_type": "functional, cell-based"}, "[8]": {"assay": "cytotoxicity toward NIH3T3 fibroblasts, dose response, counter-screen, cell-based, ATP luminescence, mouse fibroblasts (AID 2010);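 further: cells exposed to compound for about 90 hours before reading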", "assay_type": "functional"}, "cells [9]": {"assay": "cells", "assay_type": "functional"}, "[10]": {"assay": "Luminescence Cell-Based Dose Retest to Confirm Inhibitors of Cancer Stem Cells. [Related pubchem assays (depositor defined):AID2717, AID2721]", "assay_type": "functional", "conditions": "Homo sapiens"}, "[11]": {"assay": "growth suppression of PTEN-null colon cells, dose response, cell-based, HCT116 PTEN knockout (AID 1047);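 further: cells exposed to compound for 60 hours before readout; potency for loss of cell viability measured by luminescence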", "assay_type": "functional"}, "[12]": {"assay": "inhibitors of intracellular T. cruzi replication, confirmation, NIH3T3 host cells, beta-gal luminescence (AID 2044);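 further: luminescent beta-galactosidase reporter signal from transgenic T. cruzi replicating inside host cells; inhibitors lower the luminescence signal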", "assay_type": "functional, cell-based"}, "Melanocortin receptor 4": {"biological_target": "Melanocortin receptor 4 (Homo sapiens, UniProt P32245)", "sequence (P32245 whole entry)": "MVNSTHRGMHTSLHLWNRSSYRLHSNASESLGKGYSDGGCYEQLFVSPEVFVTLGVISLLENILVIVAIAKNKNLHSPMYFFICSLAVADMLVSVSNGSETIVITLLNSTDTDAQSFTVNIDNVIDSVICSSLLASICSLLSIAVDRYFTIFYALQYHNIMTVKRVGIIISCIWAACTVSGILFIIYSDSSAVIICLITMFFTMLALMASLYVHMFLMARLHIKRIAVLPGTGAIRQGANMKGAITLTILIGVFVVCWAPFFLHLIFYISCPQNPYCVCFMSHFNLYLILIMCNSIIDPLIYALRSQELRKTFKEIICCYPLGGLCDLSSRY", "assay_type": "functional, cell-based"}, "[13]": {"assay": "growth suppression of beta-catenin-knockout colon cells, dose response, cell-based, HCT116, human colon tumor (AID 1045);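 further: cells exposed to compound for 60 hours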", "assay_type": "functional"}, "[14]": {"assay": "THP-1 cell cytotoxicity, dose response, cytotoxicity control for non-replicating M. tuberculosis project (AID 489025)", "assay_type": "functional"}, "[15]": {"biological_target": "DNA dC->dU-editing enzyme APOBEC-3G (Homo sapiens, UniProt Q9HC16)", "sequence (Q9HC16 whole entry)": "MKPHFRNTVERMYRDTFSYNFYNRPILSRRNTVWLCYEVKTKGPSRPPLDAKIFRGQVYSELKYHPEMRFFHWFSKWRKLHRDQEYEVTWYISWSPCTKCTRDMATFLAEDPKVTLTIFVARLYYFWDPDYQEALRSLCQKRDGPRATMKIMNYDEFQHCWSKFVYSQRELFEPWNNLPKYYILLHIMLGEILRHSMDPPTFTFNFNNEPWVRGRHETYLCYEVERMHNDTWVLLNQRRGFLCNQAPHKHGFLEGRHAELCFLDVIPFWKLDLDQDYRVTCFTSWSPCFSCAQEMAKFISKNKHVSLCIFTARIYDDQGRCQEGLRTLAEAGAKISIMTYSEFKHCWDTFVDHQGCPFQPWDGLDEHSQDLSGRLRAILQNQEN", "assay": "Dose Response confirmation of small molecule APOBEC3G DNA Deaminase Inhibitors via a fluorescence-based single-stranded DNA deaminase assay. [Related pubchem assays (depositor defined):AID493012, AID493028]", "assay_type": "functional"}, "[16]": {"biological_target": "T2, Polyadenylate-binding protein 1 (Homo sapiens, UniProt P11940)", "T2 sequence (P11940 whole entry)": "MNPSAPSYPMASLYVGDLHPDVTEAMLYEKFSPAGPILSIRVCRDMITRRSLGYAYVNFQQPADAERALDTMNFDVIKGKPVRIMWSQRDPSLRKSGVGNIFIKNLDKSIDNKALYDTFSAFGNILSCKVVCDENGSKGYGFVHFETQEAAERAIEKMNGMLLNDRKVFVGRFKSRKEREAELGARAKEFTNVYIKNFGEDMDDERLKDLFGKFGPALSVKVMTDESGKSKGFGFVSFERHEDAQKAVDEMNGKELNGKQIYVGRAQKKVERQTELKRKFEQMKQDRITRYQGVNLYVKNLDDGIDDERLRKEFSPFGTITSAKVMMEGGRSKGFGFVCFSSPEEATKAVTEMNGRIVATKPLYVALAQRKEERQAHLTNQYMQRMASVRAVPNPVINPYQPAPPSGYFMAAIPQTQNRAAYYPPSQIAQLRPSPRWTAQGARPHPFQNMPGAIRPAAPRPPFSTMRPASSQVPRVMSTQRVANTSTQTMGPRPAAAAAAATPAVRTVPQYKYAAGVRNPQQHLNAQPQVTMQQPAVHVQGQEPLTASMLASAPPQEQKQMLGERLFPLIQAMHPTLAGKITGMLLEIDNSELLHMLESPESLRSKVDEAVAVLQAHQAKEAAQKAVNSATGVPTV", "assay": "PABP1 MLLE–PAM2 interaction inhibitors, dose response, miRNA deadenylation inhibitor project, biochemical, fluorescence polarization, Cy5-PAM2 peptide, secondary (AID 602260)", "assay_type": "functional", "conditions": "read-out: IC50_Mean"}, "[17]": {"biological_target": "T2, Polyadenylate-binding protein 1", "assay": "PABP1 MLLE–PAM2 binding inhibitor potency, dose response, biochemical, fluorescence polarization, FITC-PAM2 peptide (AID 602259)", "assay_type": "functional", "conditions": "read-out: IC50_Mean"}, "[18]": {"biological_target": "Cyclin-dependent kinase 5/CDK5 activator 1 (Homo sapiens, UniProt Q00535)", "sequence (Q00535 whole entry)": "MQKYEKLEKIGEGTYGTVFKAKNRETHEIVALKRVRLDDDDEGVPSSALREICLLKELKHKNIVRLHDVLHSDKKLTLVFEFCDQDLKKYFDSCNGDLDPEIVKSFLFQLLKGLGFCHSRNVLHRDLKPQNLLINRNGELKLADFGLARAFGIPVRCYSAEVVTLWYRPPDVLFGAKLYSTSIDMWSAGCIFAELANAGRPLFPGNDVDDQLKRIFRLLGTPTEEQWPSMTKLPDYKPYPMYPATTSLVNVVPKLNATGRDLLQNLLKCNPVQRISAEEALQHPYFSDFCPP", "sequence (Q15078 whole entry, further chain)": "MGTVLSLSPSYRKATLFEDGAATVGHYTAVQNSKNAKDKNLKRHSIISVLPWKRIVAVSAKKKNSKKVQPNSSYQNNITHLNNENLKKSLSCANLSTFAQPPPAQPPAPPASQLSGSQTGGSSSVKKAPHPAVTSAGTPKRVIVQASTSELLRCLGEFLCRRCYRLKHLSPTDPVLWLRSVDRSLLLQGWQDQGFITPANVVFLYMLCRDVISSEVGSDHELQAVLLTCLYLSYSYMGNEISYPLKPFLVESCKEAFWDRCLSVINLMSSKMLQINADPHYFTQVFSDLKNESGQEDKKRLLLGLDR", "assay": "CDK5/p35 kinase inhibitors, dose response, biochemical, cherry-picked samples, set 2 (AID 504545)"}, "Protein RecA": {"biological_target": "T3, Protein RecA (Mycobacterium tuberculosis, UniProt P9WHJ3)", "T3 sequence (P9WHJ3 whole entry)": "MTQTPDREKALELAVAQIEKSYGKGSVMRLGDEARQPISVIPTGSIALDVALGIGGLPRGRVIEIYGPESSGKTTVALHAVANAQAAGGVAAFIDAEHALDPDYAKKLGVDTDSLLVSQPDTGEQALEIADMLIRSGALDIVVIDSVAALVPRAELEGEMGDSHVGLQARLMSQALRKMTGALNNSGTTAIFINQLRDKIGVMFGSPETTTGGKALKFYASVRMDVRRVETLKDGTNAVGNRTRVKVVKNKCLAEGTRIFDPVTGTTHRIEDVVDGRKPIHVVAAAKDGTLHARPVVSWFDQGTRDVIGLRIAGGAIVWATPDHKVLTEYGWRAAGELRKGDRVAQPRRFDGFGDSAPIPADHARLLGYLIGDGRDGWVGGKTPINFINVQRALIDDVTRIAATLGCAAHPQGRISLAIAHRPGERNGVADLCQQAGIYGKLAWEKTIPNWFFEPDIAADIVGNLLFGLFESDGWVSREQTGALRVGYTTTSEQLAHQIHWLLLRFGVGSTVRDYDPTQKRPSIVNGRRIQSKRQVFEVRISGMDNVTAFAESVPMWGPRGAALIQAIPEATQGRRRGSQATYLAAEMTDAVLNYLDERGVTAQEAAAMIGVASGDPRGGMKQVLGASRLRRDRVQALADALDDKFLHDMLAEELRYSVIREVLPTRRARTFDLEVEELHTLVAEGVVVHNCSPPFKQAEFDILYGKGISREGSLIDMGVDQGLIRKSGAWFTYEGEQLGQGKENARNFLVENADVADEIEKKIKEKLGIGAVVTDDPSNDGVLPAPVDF", "assay": "Fluorescence Cell-Free Homogeneous Dose Retest to Identify Inhibitors of RecA-Intein Splicing Activity. [Related pubchem assays (depositor defined):AID2097, AID2223, AID489010, AID492950]", "assay_type": "functional"}, "[19]": {"assay": "A Cell Based Secondary Assay To Explore Cytotoxicity of Compounds that Sensitize Mycobacterium Tuberculosis to Beta-Lactam Antibiotics.", "assay_type": "functional"}, "[20]": {"assay": "P. falciparum Dd2 growth inhibitors, dose response, SYBR Green, cherry-picked samples (AID 1159567)", "assay_type": "functional, cell-based"}, "[21]": {"assay": "HepG2 cell cytotoxicity, dose response, cytotoxicity control, cherry-picked samples (AID 1159577)", "assay_type": "functional, cell-based"}}, "note": "The source made the active and inactive calls."}
{"compound": "Cc1ccccc1NC(=O)Cn1cnc2c1c(=O)n(C)c(=O)n2C", "values": [{"measurement": "AC50", "setting": "Cytochrome P450 1A2", "result": "15.8 µM (inconclusive)"}, {"measurement": "IC50", "setting": "Estrogen receptor beta", "result": "> 50 µM (not active)"}]}
{"compound": "CCCC(=O)N1CCN(c2ccc([N+](=O)[O-])c(NC(C)c3ccccc3)c2)CC1", "note": "(configuration not stated)", "values": [{"measurement": "EC50", "setting": "[1]", "result": "5.51 µM (active)"}]}
{"compound": "C/C=C(\\C)C(=O)OC1C(C)=C2C(C1OC(=O)CCCCC)C(C)(OC(C)=O)CC(OC(=O)CCC)C1(O)C2OC(=O)C1(C)O", "note": "(configuration not stated)", "values": [{"measurement": "EC50", "setting": "[2]", "result": "0.047 µM (active)"}, {"measurement": "EC50", "setting": "cells [3]", "result": "0.228 µM (active)"}, {"measurement": "EC50", "setting": "[4]", "result": "< 0.1 µM (active)"}, {"measurement": "EC50", "setting": "[5]", "result": "< 0.1 µM (active)"}, {"measurement": "EC50", "setting": "[6]", "result": "< 0.1 µM (active)"}, {"measurement": "EC50", "setting": "[7]", "result": "0.051 µM (active)"}]}
{"compound": "COc1ccc(OC)c(CCNC(=O)CS(=O)(=O)Cc2nc(-c3ccc(C)cc3)oc2C)c1", "values": [{"measurement": "EC50", "setting": "[1]", "result": "3.8 µM (active)"}]}
{"compound": "OC(CNCCc1ccc(C(F)(F)F)cc1)COc1cccc2ccccc12", "note": "(configuration not stated)", "values": [{"measurement": "EC50", "setting": "[8]", "result": "> 60 µM (inconclusive)"}, {"measurement": "IC50", "setting": "cells [9]", "result": "21.7 µM (active)"}, {"measurement": "AC50", "setting": "[10]", "result": "3.47 µM (active)"}, {"measurement": "EC50", "setting": "[11]", "result": "12.7 µM (active)"}, {"measurement": "EC50", "setting": "[12]", "result": "0.631 µM (active)"}, {"measurement": "EC50", "setting": "Melanocortin receptor 4", "result": "> 89.2 µM (inactive)"}, {"measurement": "EC50", "setting": "[13]", "result": "10.7 µM (active)"}, {"measurement": "CC50", "setting": "[14]", "result": "21.5 µM (active)"}]}
{"compound": "COc1ccccc1NC(=O)NC(N)=O", "values": [{"measurement": "IC50", "setting": "Estrogen receptor beta", "result": "> 50 µM (not active)"}]}
{"compound": "CCCOC(=O)c1c(NC(=O)C2CCCO2)sc(C(=O)OC)c1C", "note": "(configuration not stated)", "values": [{"measurement": "IC50", "setting": "[15]", "result": "69.5 µM (active)"}, {"measurement": "IC50", "setting": "[16]", "result": "> 66 µM (inactive)"}, {"measurement": "EC50", "setting": "[11]", "result": "28.7 µM (active)"}, {"measurement": "IC50", "setting": "[17]", "result": "> 66 µM (inactive)"}, {"measurement": "EC50", "setting": "[13]", "result": "28.2 µM (active)"}]}
{"compound": "Cc1n[nH]c(O)c1C(c1ccccc1[N+](=O)[O-])C(C#N)C#N", "note": "(configuration not stated)", "values": [{"measurement": "AC50", "setting": "[18]", "result": "61.1 µM (active)"}, {"measurement": "EC50", "setting": "Protein RecA", "result": "3.93 µM (active)"}]}
{"compound": "CC(C)(C)Nc1nc(Nc2ccc([N+](=O)[O-])cc2)nc(NC(C)(C)C)n1", "values": [{"measurement": "EC50", "setting": "[4]", "result": "> 120 µM (not active)"}, {"measurement": "CC50", "setting": "[19]", "result": "> 40 µM (active)"}, {"measurement": "EC50", "setting": "[5]", "result": "> 120 µM (not active)"}, {"measurement": "EC50", "setting": "[6]", "result": "> 120 µM (not active)"}]}
{"compound": "Cc1cccc(-c2ccc([C@@H]3[C@H](CO)N4CCCCN(S(=O)(=O)c5cccc(C)c5)C[C@@H]34)cc2)c1", "values": [{"measurement": "AC50", "setting": "[20]", "result": "0.864 µM (active)"}, {"measurement": "AC50", "setting": "[21]", "result": "8.89 µM (active)"}]}
